Where a SMILES comes first, the peptide text is derived from it.
What was measured:
MroB/C = MroB/C dehydration (Dha formation) of MroA precursor peptide variants, MALDI-TOF-MS / LC-MS/MS; assay type: biochemical, Micromonospora rosaria; details: for Dha formation: MroA2 multi-site variants, in vitro translated, MALDI-TOF-MS; for dehydration by MroBC (site and extent): MroBC assays followed by LC-MS/MS analysis, result in words
Description: In a 0.65 mL protein low-binding Eppendorf tube placed on ice. 0.75 μL of purified mroA variant template DNA was mixed with 0.75 μL of Solution B and 1 μL of Solution A of PURExpress In vitro Protein Synthesis Kit (E6800L) purchased from NEB (total volume of reaction is 2.5 μL). The translation reactions were performed at 37° C. for 1 h on an aluminum block.
For a full MroBCD substrate scope investigation, a total translation volume for each variant of 7.5 μL was performed. 1.5 μL of 90 mM iodoacetamide (IAA) was added to quench dithiothreitol (DTT) in the translation reaction mixture, a thiol-based nucleophile that can react with electrophilic dehydroalanines generated from MroBC-catalyzed dehydration assays. The translation product was split into two parts with these corresponding volumes: 3 μL and 6 μL. In the 6 μL part. 10.2 μL of the enzyme mix containing enzymes and cofactors was added along with 1.8 μL 90 mM ATP (pH 7.5), which was used to initiate the reaction. The enzyme mix was made by adding these components in the following order: HEPES pH 7.5, MgCl2, glutamate, T. bispora tRNA^Glu (CUC), thermostable inorganic pyrophosphatase (TIPP), TEV (L56V/S135G/S219V) (w/w ratio with a total amount of MBP-tagged protein=1:10), MBP-MroB, MBP-MroC, and T. bispora GluRS. The enzyme mix was incubated 25 min at room temperature before adding to the translation product to facilitate in situ TEV-catalyzed cleavage of MBP from MBP-MroB and MBP-MroC. The enzymatic reaction proceeded for 1 h at room temperature. Overall, the concentration of components in the 18 μL reaction mix is as follows: 50 mM HEPES pH 7.5, 5 mM MgCl2. L-glutamate 1 mM, 3 μM T. bispora tRNA^Glu, 1 μM T. bispora GluRS, 2 μM MBP-MroB, 2 μM MBP-MroC, […], 0.027 U/μL TIPP, and 5 mM IAA. In addition, the 3 μL part was incubated with the same buffer lacking enzymes and tRNA as a translation control.
The reactions were performed similarly as described above, with 10 μM substrate concentration and without IAA. The total volume of each reaction is 100 μL.
Enzymatic assays were desalted using solid-phase extraction prior to LC-ESI-MS/MS analysis. Specifically, except for the thiazol(in)es-containing pyritide (which utilize 8 mg Pierce C18 Spin Column), the samples were applied to Toptip C18 (10-200 μL, Glygen Corp) wetted with 50 μL of 80% acetonitrile (0.1% formic acid) and equilibrate with 150 μL of 0.1% formic acid following the manufacturer instructions. The C18 columns (tips) are then washed with 150 μL of 0.1% formic acid and eluted using 100 μL 80% acetonitrile (0.1% formic acid). The samples were then dried utilizing lyophilization and redissolved in 25% acetonitrile (80 μL for enzymatic assays of in vitro-translated substrates and 200 μL for enzymatic assays of purified substrates). Then 20 μL of each sample was injected into an Agilent AdvanceBio Peptide Plus column (2.1×150 mm, 2.7 μm) equipped with an Agilent 6545B Q-TOF interfaced with an Agilent 1290 Infinity II LC system. Mobile phase solvents were composed of H2O, 0.1% formic acid (Solvent A), and acetonitrile 0.1% formic acid (Solvent B). The column compartment was maintained at 35° C. during all experiments. The column was equilibrated with 5 column volumes of starting mobile phase (95% A and 5% B) between injections. The gradient of all LC runs was as follows: 0-2 min: 95% A 5% B, 2-3 min: 70% A 30% B, 3-18 min: 20% A 80% B, 18-20 min: 5% A 95% B. The samples were run to waste for the first 3 min before applying to the mass spectrometer. Mass range was set from 100 to 1700 m/z (except for 412MroA1 W7G: 100-3000 m/z). MS parameters were as follows: gas, 320° C. at 8 L/min: nebulizer, 35 psig: nozzle voltage, 1000 V: sheath gas, 350° C. at 11 L/min: capillary, 3500 V: fragmentor, 125 V: skimmer, 65 V: MS scan rate (10) spectra/s): MS-MS scan rate (5 spectra/s); and isolation width (MS/MS), 1.3 m z. […]

MroD [1] = experiment: MroD [4+2] macrocyclization of didehydrated MroA2 variants, MALDI-TOF-MS; assay type: biochemical, Micromonospora rosaria; parameters: key: +++ indicates enzyme activity roughly equal to wild-type MroA2; ++ indicates modestly reduced enzyme activity; + indicates severely reduced enzyme activity; − indicates no detectable enzyme activity (no macrocycles detected); details: MroA2 multi-site variants; qualitatively estimated from leader peptide vs remaining didehydrated intermediate
Description: After incubation, the enzyme reaction (18 μL) was split into two equal parts. One part was treated with MBP-MroD such that the final concentration of MBP-MroD is 3 μM, and the other part was added the same volume but with buffer lacking MBP-MroD (50 mM HEPES, 300 mM NaCl, 2.5% glycerol, 0.5 mM TCEP). The reaction further proceeded for 1.5 h at room temperature. All reaction mixture was then desalted with solid-phase extraction using Ziptip with 0.6 μL C18 resin (EMD Millipore) and crystallized on an MTP384 steel target plate using either saturated sinapic acid or 50 mg/mL Super DHB [dissolved in 60% acetonitrile and 0.1% trifluoroacetic acid (TFA)] as the matrix. The crystallized spots were then analyzed using MALDI-TOF-MS (Bruker Ultraflex). The external standard for MALDI-TOF-MS analysis is ProteoMass Peptide and Protein MALDI-MS Calibration Kit (Sigma).

[2] = target: MBP-MroB (Micromonospora rosaria MroB with maltose-binding protein fused to the N-terminus) (Micromonospora rosaria) [MBP: P0AEX9]; experiment: competition fluorescence polarization against fluorescein-Δ12MroA1
[3] = target: MBP-MroD (Micromonospora rosaria MroD with maltose-binding protein fused to the N-terminus) (Micromonospora rosaria) [MBP: P0AEX9]; experiment: as above
MroB = experiment: Competition fluorescence polarization with fluorescein-Δ12MroA1, MroB; assay type: binding, Micromonospora rosaria; details: for IC50: competition FP, 80 nM enzyme, 5 nM labeled Δ12MroA1
Description: (§1) The initial sample contained 80 nM enzyme, 5 nM labeled Δ12MroA1 peptide, and competitor peptide (concentration is from 20 μM to 100 μM, depending on the experiment). In a black 384-well plate (Corning 3575), 30 μL of initial sample was added to the first well, followed by 13 2-fold dilutions into subsequent wells containing 80 nM MBP-MroB and 5 nM labeled Δ12MroA1. The plate was covered from light and incubated at room temperature for 10 min, and then fluorescence polarization was measured (Biotek Synergy H4 hybrid reader) using the following filter (Ex: Em—485 nm/20 nm: 518 nm/20 nm). The obtained data was converted to anisotropy value and plotted against peptide concentration, and fitted to dose-response function:
(§2) Where: y=anisotropy value, A1=minimum anisotropy, A2=maximum anisotropy, p=Hill's coefficient, x=competitor concentration. The obtained IC50 was used to calculate inhibitor constant Krusing the following equation: 12
(§3) In cases where competitor concentration was not high enough to achieve a plateau, the competition curve was fitted with minimum anisotropy fixed to be the same value as the anisotropy value of the free probe solution. This calculation assumed that the labeled peptide was completely displaced from the enzyme binding pocket at a very high concentration of the competitor. […] The specific minimum anisotropy used in this experiment for both MroB and MroD was 65.

MroD [4] = experiment: Competition fluorescence polarization with fluorescein-Δ12MroA1, MroD; assay type: binding, Micromonospora rosaria; details: competition FP, 80 nM enzyme, 5 nM labeled Δ12MroA1
Description: as §1, §2, §3

Row | Molecule | Dha formation (MroB/C) [Dha] | Relative MroD conversion (MroD [1]) | also measured
1 | SGIAKEVQSWLI [Number 47] | 2 | − | 
2 | SGKALEFSWLI [Number 29] | 2 | − | 
3 | SGYHFHNRSWLI [Number 54-V8R] | 2 | − | 
4 | SGYHFHNVSWLI [Number 54] | 2 | − | 
5 | SGIAKEVRSWLI [Number 47-Q8R] | 2 | − | 
6 | SGRANSWLI [Number 2] | 2 | − | 
7 | Δ12MroA1-I9G (peptide) |  |  | IC50 [2]: 2 µM; IC50 [3]: 0.91 µM
8 | H-SDLDIVDLDLAVDEELAALSVGGLGNTEVGASGWLGSGVI-OH [Δ12MroA1-W7G] |  |  | dehydration by MroBC (site and extent) (MroB/C): only Ser1 is predominantly dehydrated; IC50 (MroB): 8.1 ± 3.9 µM; IC50 (MroD [4]): 2.4 ± 0.3 µM
9 | Δ12MroA1-V8G (peptide) |  |  | IC50 [2]: 1.1 µM; IC50 [3]: 1.7 µM
10 | GlyAla-MroA1 core (peptide) |  |  | IC50 [2]: 27.2 µM; IC50 [3]: 40.9 µM
11 | Δ12MroA1 (variant of MroA1 in which the first 12 residues were deleted) (peptide) |  |  | IC50 [2]: 0.68 µM; IC50 [3]: 0.9 µM
12 | SGYDRQYSWLI [Number 56] | 2 | − | 
13 | H-SDLDIVDLDLAVDEELAALSVGGLGNTEVGA-OH [Δ12MroA1 Leader] |  |  | IC50 (MroB): 19.4 ± 1.6 µM; IC50 (MroD [4]): 16 ± 4.4 µM
14 | H-SDLDIVDLDLAVDEELAALSVGGLGNTEVGASGWLGSWGI-OH [Δ12MroA1-V8G] |  |  | IC50 (MroB): 1.1 ± 0.2 µM; IC50 (MroD [4]): 1.7 ± 0.4 µM
15 | Ac-GASGWLGSWVI-OH [GlyAla-MroA1 core, Ac-GASGWLGSWVI] |  |  | dehydration by MroBC (site and extent) (MroB/C): only Ser6 is dehydrated; IC50 (MroB): 27.2 ± 1.9 µM; IC50 (MroD [4]): 40.9 ± 5 µM
16 | H-SDLDIVDLDLAVDEELAALSVGGLGNTEVGASGWLGSWVG-OH [Δ12MroA1-I9G] |  |  | IC50 (MroB): 2 ± 0.6 µM; IC50 (MroD [4]): 0.91 ± 0.09 µM
17 | Δ12MroA1 Leader (peptide) |  |  | IC50 [2]: 19.4 µM; IC50 [3]: 16 µM
18 | SGHYKPQASWLI [Number 55] | 2 | − | 
19 | SGVKADSWLI [Number 4] | 2 | − | 
20 | Δ12MroA1-COOMe (peptide) |  |  | IC50 [2]: 4.2 µM; fold loss in binding affinity (against Δ12MroA1) [2]: 8 fold; IC50 [3]: 0.4 µM
21 | SGGYRPHSWLI [Number 38] | 2 | − | 
22 | SGHYKPQRSWLI [Number 55-A8R] | 2 | − | 
23 | Δ12MroA1-W7G (peptide) |  |  | IC50 [2]: 8.1 µM; IC50 [3]: 2.4 µM
24 | CC[C@H](C)[C@H](NC(=O)[C@H](CC(=O)O)NC(=O)[C@H](CC(C)C)NC(=O)[C@H](CC(=O)O)NC(=O)[C@@H](N)CO)C(=O)N[C@H](C(=O)N[C@@H](CC(=O)O)C(=O)N[C@@H](CC(C)C)C(=O)N[C@@H](CC(=O)O)C(=O)N[C@@H](CC(C)C)C(=O)N[C@@H](C)C(=O)N[C@H](C(=O)N[C@@H](CC(=O)O)C(=O)N[C@@H](CCC(=O)O)C(=O)N[C@@H](CCC(=O)O)C(=O)N[C@@H](CC(C)C)C(=O)N[C@@H](C)C(=O)N[C@@H](C)C(=O)N[C@@H](CC(C)C)C(=O)N[C@@H](CO)C(=O)N[C@H](C(=O)NCC(=O)NCC(=O)N[C@@H](CC(C)C)C(=O)NCC(=O)N[C@@H](CC(N)=O)C(=O)N[C@H](C(=O)N[C@@H](CCC(=O)O)C(=O)N[C@H](C(=O)NCC(=O)N[C@@H](C)C(=O)N[C@@H](CO)C(=O)NCC(=O)N[C@@H](Cc1c[nH]c2ccccc12)C(=O)N[C@@H](CC(C)C)C(=O)NCC(=O)N[C@@H](CO)C(=O)N[C@@H](Cc1c[nH]c2ccccc12)C(=O)N[C@H](C(=O)N[C@H](C(=O)OC)[C@@H](C)CC)C(C)C)C(C)C)[C@@H](C)O)C(C)C)C(C)C)C(C)C [Δ12MroA1-COOMe] (H-SDLDIVDLDLAVDEELAALSVGGLGNTEVGASGWLGSWVI-OMe) |  |  | IC50 (MroB): 4.2 ± 1.7 µM; loss in binding affinity to MroB (MroB; relative to Δ12MroA1): ~8 fold; IC50 (MroD [4]): 0.4 ± 0.06 µM
25 | SGLQHGKRSWLI [Number 52-Y8R] | 2 | − | 
26 | SGDAMRWRSWLI [Number 53-A8R] | 2 | − | 
27 | SGRYAGWSWLI [Number 39] | 2 | − | 
28 | SGLQHGKYSWLI [Number 52] | 2 | − | 
